Like-named read-outs stand apart in the source and are kept apart here.
Columns and labels:
[1] = test system: A2058 cells; experiment: Cell viability assay (CELL-TITER-GLO) in A2058 cells; format: cell-based; conditions: Homo sapiens
[2] = test system: HCT116 human colon carcinoma xenograft; experiment: HCT116 human colon carcinoma xenograft model in mice; format: in vivo; conditions: 20 mg/kg per dose intravenously, days 9, 11, 14, 16, 18 and 21 post tumor cell injection
Procedure: Compound of Example 73 was administered at 20 mg/kg per dose. Injections were given at days 9, 11, 14, 16, 18 and 21 post tumor cell injection.
The compound of Example 73 was tested in HCT116 human colon carcinoma xenograft and Miapaca pancreatic cancer xenograft tumor models in 5- to 6-week-old Harlan Athymic Nude-Foxnlnu mice.
Preparation of Tumor Cells • 1. Tumor cells were cultured in complete RPMI medium and excluded any contamination • 2. When cells are 70-80% confluent, medium was removed and cells were washed with serum free media, trypsinized, harvested and washed with serum free media for three times by centrifuge. After final washing, cells were counted and mixed with matrigel at 1:1 ration in volume. Cells were suspended in a volume that 200 μl contains required number of cells per injection.
Preparation of the Injection • 1. Clean and sterilize the inoculation area of the mice with iodine solutions and ethanol. • 2. Take cells with 1-cc syringe. • 3. Inject tumor cells (1×10^7) subcutaneously (s.c.) into the lower flank of the mice. • 4. When tumors reached 200-300 mm^3 in size, mice were randomized into treatment groups of five mice per group. • 5. Mice were weighed and tumors measured using vernier calipers two times per week. Tumor volume in mm3 is calculated by the formula: Volume (mm^3)=(length×width^2)/2. […]

[3] = test system: U937 cells; experiment: Cell viability assay (CELL-TITER-GLO) in U937 cells; format: cell-based; conditions: Homo sapiens
[4] = test system: HCT116; experiment: Cell profiling, HCT116 tumor cell line; format: cell-based; conditions: Homo sapiens, HCT-116; Tumor cell line HCT116, origin Colon
Procedure: (§1) Cell viability assays were run using standard protocols known to those of skill in art. Cells were plated in 96 well plates at the density of 3,000-10,000 cells per well. Twenty four hours later, cells were treated with increasing concentration of test compounds (1 nM to 1 μM). After another 48 hour, cell survival was measured using CELL-TITER-GLO® reagent (Promega) following the protocol provided by the manufacture. The IC50 value was determined as the concentration of test compound that kills 50% of the cell population.
(§2) The compound of Example 46 was profiled in tumor cell lines derived from a variety of origins.

[5] = test system: DU145; experiment: Cell profiling, DU145 tumor cell line; format: cell-based; conditions: Homo sapiens, DU-145; Tumor cell line DU145, origin Prostate
Procedure: as §1, §2

[6] = test system: HCC461; experiment: Cell profiling, HCC461 tumor cell line; format: cell-based; conditions: Tumor cell line HCC461, origin Lung
Procedure: as §1, §2

[7] = test system: A375; experiment: Cell profiling, A375 tumor cell line; format: cell-based; conditions: Homo sapiens, A-375; Tumor cell line A375, origin Skin
Procedure: as §1, §2

[8] = test system: COLO205; experiment: Cell profiling, COLO205 tumor cell line; format: cell-based; conditions: Homo sapiens, COLO 205; Tumor cell line COLO205, origin Colon
Procedure: as §1, §2

[9] = test system: LOVO; experiment: Cell profiling, LOVO tumor cell line; format: cell-based; conditions: Homo sapiens, origin Colon
Procedure: as §1, §2

[10] = test system: OVCAR 3; experiment: Cell profiling, OVCAR 3 tumor cell line; format: cell-based; conditions: Homo sapiens; Tumor cell line OVCAR 3, origin Ovarian
Procedure: as §1, §2

[11] = test system: NCI-H460; experiment: Cell profiling, NCI-H460 tumor cell line; format: cell-based; conditions: Homo sapiens; Tumor cell line NCI-H460, origin Lung
Procedure: as §1, §2

[12] = test system: BxPC3; experiment: Cell profiling, BxPC3 tumor cell line; format: cell-based; conditions: Homo sapiens, BXPC-3; Tumor cell line BxPC3, origin Pancreas
Procedure: as §1, §2

[13] = test system: HT29; experiment: Cell profiling, HT29 tumor cell line; format: cell-based; conditions: Homo sapiens, HT-29; Tumor cell line HT29, origin Colon
Procedure: as §1, §2

[14] = test system: HCC1437; experiment: Cell profiling, HCC1437 tumor cell line; format: cell-based; conditions: Tumor cell line HCC1437, origin Lung
Procedure: as §1, §2

[15] = test system: BT474; experiment: Cell profiling, BT474 tumor cell line; format: cell-based; conditions: Homo sapiens, BT-474; Tumor cell line BT474, origin Breast
Procedure: as §1, §2

[16] = A2058, 48 h, A2058 cells, 48 hour treatment, cell viability, read-out: IC50 (μM) A2058
[17] = U-937, 48 h, U937 cells, 48 hour treatment, cell viability, read-out: IC50 (μM) U937

## CC(C)[C@H](O)C(=O)N[C@H]1Cc2ccc3c(c2)C2(C4=C(c5nc(CO)co5)N=C(O4)[C@H](C(C)C)NC1=O)c1ccccc1N[C@H]2O3 (stereo partly shown) [Example 73]
[1]; [16]
  IC50: 0.093 µM
[2]
  maximum weight loss: 7.9%
[2]; day 25
  tumor size for treated animals, % of control: 34.5 % of control
[3]; [17]
  IC50: 0.037 µM

## COC(=O)c1coc(-c2nc3oc2C24c5ccccc5N[C@H]2Oc2ccc(cc24)C[C@H](NC(=O)[C@@H](O)C(C)C)C(=O)N[C@H]3C(C)C)n1 (stereo partly shown) [Example 46]
[4]
  IC50: 731 nM
[5]
  IC50: 67 nM
[6]
  IC50: 344 nM
[1]; [16]
  IC50: 0.044 µM
[1]; A2058, Tumor cell line A2058, origin Skin, read-out: IC50
  IC50: 0.044 µM
[7]
  IC50: 99 nM
[8]
  IC50: 147 nM
[9]
  IC50: 148 nM
[10]
  IC50: 32 nM
[11]
  IC50: 245 nM
[12]
  IC50: 23 nM
[13]
  IC50: 90 nM
[14]
  IC50: 63 nM
[3]; [17]
  IC50: 0.013 µM
[3]; U-937, Tumor cell line U937, origin Blood, read-out: IC50
  IC50: 0.013 µM
[15]
  IC50: 6 nM

## CC(C)[C@H](O)C(=O)N[C@H]1Cc2ccc3c(c2)C2(C4=C(C(=O)NCC(=O)c5c[nH]c6c(O)cccc56)N=C(O4)[C@H](C(C)C)NC1=O)c1cccc(Br)c1N[C@H]2O3 (stereo partly shown) [Example 33]
[1]; [16]
  IC50: > 1 µM
[3]; [17]
  IC50: > 1 µM

## CCOC(=O)c1noc(-c2nc3oc2C24c5ccccc5N[C@H]2Oc2ccc(cc24)C[C@H](NC(=O)[C@@H](O)C(C)C)C(=O)N[C@H]3C(C)C)n1 (stereo partly shown) [Example 88]
[1]; [16]
  IC50: > 1 µM
[3]; [17]
  IC50: 0.7 µM

## CCC(O)(CC)C(=O)N[C@H]1Cc2ccc3c(c2)C2(C4=C(c5cnco5)N=C(O4)[C@H](C(C)C)NC1=O)c1ccccc1N[C@H]2O3 (stereo partly shown) [Example 84]
[1]; [16]
  IC50: 0.487 µM
[3]; [17]
  IC50: 0.315 µM

## CNC(=O)c1nc2oc1C13c4ccccc4N[C@H]1Oc1ccc(cc13)C[C@H](NC(=O)[C@@H](O)C(C)C)C(=O)N[C@H]2C(C)C (stereo partly shown) [Example 23]
[1]; [16]
  IC50: > 1 µM
[3]; [17]
  IC50: > 1 µM

## COC(=O)c1nc(-c2nc3oc2C24c5ccccc5N[C@H]2Oc2ccc(cc24)C[C@H](NC(=O)[C@@H](O)C(C)(C)C)C(=O)N[C@H]3C(C)C)oc1C (stereo partly shown) [Example 68]
[1]; [16]
  IC50: 0.066 µM
[3]; [17]
  IC50: 0.057 µM

## COC(=O)c1nc([C@@H](NC(=O)[C@H](Cc2ccc(O)cc2)NC(=O)[C@@H](O)C(C)C)C(C)C)oc1-c1c[nH]c2ccccc12 [Example 89]
[1]; A2058 cells, 48 hour treatment, cell viability, read-out: IC50 (μM) A2058
  IC50: > 1 µM
[3]; U-937, U937 cells, 48 hour treatment, cell viability, read-out: IC50 (μM) U937
  IC50: > 1 µM

## CC(C)[C@H](O)C(=O)N[C@H]1Cc2ccc3c(c2)C2(C4=C(c5nc(C(=O)N(C)C)co5)N=C(O4)[C@H](C(C)C)NC1=O)c1ccccc1N[C@H]2O3 (stereo partly shown) [Example 65]
[1]; [16]
  IC50: 0.553 µM
[3]; [17]
  IC50: 0.235 µM

Reference: patent US7989482B2, “Indoline anti-cancer agents” (Joyant Pharmaceuticals, Inc., priority 2008, dated 2011)
